{"source": "patent US20170247458A1", "about": "“Safety for Treating Cancers with a Glycosylated Chimeric Antibody to EGFR” (Sorrento Therapeutics, Inc., priority 2016, published 2017)", "key": {"[1]": {"assay": "Phase 2/3 study, safety evaluation and adverse events", "details": "Table 7"}, "[2]": {"tested_on": "EGFR positive, metastatic colorectal cancer", "assay": "Phase 2/3 study, radiologic response and survival"}, "[3]": {"details": "human, in vivo"}}, "data": [{"smiles": "CCc1c2c(nc3ccc(OC(=O)N4CCC(N5CCCCC5)CC4)cc13)-c1cc3c(c(=O)n1C2)COC(=O)[C@]3(O)CC", "note": "[Irinotecan monotherapy, irinotecan]", "values": [{"measurement": "Test drug-related death AE, number of patients", "setting": "[1]", "value": 0}, {"measurement": "Complete response, number of patients", "setting": "[2]; Ph2/3 trial", "value": 1}, {"measurement": "Complete response, rate in parentheses", "setting": "[2]; Ph2/3 trial", "value": 0.6}, {"measurement": "Partial response, number of patients", "setting": "[2]; Ph2/3 trial", "value": 20}, {"measurement": "Partial response, rate in parentheses", "setting": "[2]; Ph2/3 trial", "value": 12.2}, {"measurement": "Progressive disease, number of patients", "setting": "[2]; Ph2/3 trial", "value": 44}, {"measurement": "Progressive disease, rate in parentheses", "setting": "[2]; Ph2/3 trial", "value": 26.8}, {"measurement": "Stable disease, number of patients", "setting": "[2]; Ph2/3 trial", "value": 86}, {"measurement": "Stable disease, rate in parentheses", "setting": "[2]; Ph2/3 trial", "value": 52.4}, {"measurement": "Time to disease progression", "setting": "[2]; Ph2/3 trial", "value": 4.1, "unit": "months"}, {"measurement": "Unable to evaluate, number of patients", "setting": "[2]; Ph2/3 trial", "value": 13}, {"measurement": "Unable to evaluate, rate in parentheses", "setting": "[2]; Ph2/3 trial", "value": 7.9}, {"measurement": "Overall response rate, number of patients", "setting": "[2]; sum of CR and PR", "value": 21}, {"measurement": "Overall response rate, rate in parentheses", "setting": "[2]; sum of CR and PR, interval in brackets not copied", "value": 12.8}, {"measurement": "Disease control rate, number of patients", "setting": "[2]; sum of CR, PR and SD", "value": 107}, {"measurement": "Disease control rate, rate in parentheses", "setting": "[2]; sum of CR, PR and SD, interval in brackets not copied", "value": 65.2}, {"measurement": "At least one ADR, number of patients", "setting": "[3]", "value": 126}, {"measurement": "At least one ADR, share of patients", "setting": "[3]", "value": 74.1, "unit": "%"}, {"measurement": "At least one AE which lead to stop drug treatment, number of patients", "setting": "[3]", "value": 27}, {"measurement": "At least one AE which lead to stop drug treatment, share of patients", "setting": "[3]", "value": 15.9, "unit": "%"}, {"measurement": "At least one AE, number of patients", "setting": "[3]", "value": 148}, {"measurement": "At least one AE, share of patients", "setting": "[3]", "value": 87.1, "unit": "%"}, {"measurement": "At least one Level □ or above ADR, number of patients", "setting": "[3]", "value": 10}, {"measurement": "At least one Level □ or above ADR, share of patients", "setting": "[3]", "value": 5.9, "unit": "%"}, {"measurement": "At least one Level □ or above AE, number of patients", "setting": "[3]", "value": 12}, {"measurement": "At least one Level □ or above AE, share of patients", "setting": "[3]", "value": 7.1, "unit": "%"}, {"measurement": "At least one Level □ or above important AE, number of patients", "setting": "[3]", "value": 11}, {"measurement": "At least one Level □ or above important AE, share of patients", "setting": "[3]", "value": 6.5, "unit": "%"}, {"measurement": "At least one SAE, number of patients", "setting": "[3]", "value": 8}, {"measurement": "At least one SAE, share of patients", "setting": "[3]", "value": 4.7, "unit": "%"}, {"measurement": "At least one important AE, number of patients", "setting": "[3]", "value": 120}, {"measurement": "At least one important AE, share of patients", "setting": "[3]", "value": 70.6, "unit": "%"}, {"measurement": "At least one test drug-related SAE, number of patients", "setting": "[3]", "value": 1}, {"measurement": "At least one test drug-related SAE, share of patients", "setting": "[3]", "value": 0.6, "unit": "%"}, {"measurement": "Grade 3-4 Abdominal pain, number", "setting": "[3]", "value": 0}, {"measurement": "Grade 3-4 Acne-like rash, number", "setting": "[3]", "value": 0}, {"measurement": "Grade 3-4 Anemia, number", "setting": "[3]", "value": 3}, {"measurement": "Grade 3-4 Anemia, value in parentheses", "setting": "[3]", "value": "(1.8)"}, {"measurement": "Grade 3-4 Asthenia, number", "setting": "[3]", "value": 6}, {"measurement": "Grade 3-4 Asthenia, value in parentheses", "setting": "[3]", "value": "(3.7)"}, {"measurement": "Grade 3-4 Diarrhea, number", "setting": "[3]", "value": 12}, {"measurement": "Grade 3-4 Diarrhea, value in parentheses", "setting": "[3]", "value": "(7.3)"}, {"measurement": "Grade 3-4 Fever, number", "setting": "[3]", "value": 1}, {"measurement": "Grade 3-4 Fever, value in parentheses", "setting": "[3]", "value": "(0.9)"}, {"measurement": "Grade 3-4 Nausea and vomiting, number", "setting": "[3]", "value": 16}, {"measurement": "Grade 3-4 Nausea and vomiting, value in parentheses", "setting": "[3]", "value": "(9.8)"}, {"measurement": "Grade 3-4 Neutropenia, number", "setting": "[3]", "value": 14}, {"measurement": "Grade 3-4 Neutropenia, value in parentheses", "setting": "[3]", "value": "(8.5)"}, {"measurement": "Grade 3-4 Stomatitis, number", "setting": "[3]", "value": 0}, {"measurement": "Grade 3-4 Thrombocytopenia, number", "setting": "[3]", "value": 0}, {"measurement": "Grade 3-4 adverse events, Any, number", "setting": "[3]", "value": 57}]}]}
